US12428430B2 (BRISTOL-MYERS SQUIBB COMPANY, priority 2018, dated 2025)

How the values were obtained:
hLPA1 [1] = target: T1, hLPA1 (Homo sapiens, UniProt Q92633); test: LPA1 functional antagonist assay (LPA-induced calcium flux in CHO cells overexpressing human LPA1); format: cell-based; parameters: expressed in transfected cells; host or cells: Chinese hamster ovary (CHO) cells; details: antagonist mode, inhibition of calcium flux induced by 10 nM LPA, read-out: hLPA1 IC50
Procedure: The effectiveness of compounds of the present invention as LPA1 inhibitors can be determined in an LPA1 functional antagonist assay as follows:
Chinese hamster ovary cells overexpressing human LPA1 were plated overnight (15,000 cells/well) in poly-D-lysine coated 384-well microplates (Greiner bio-one, Cat #781946) in DMEM/F12 medium (Gibco, Cat #11039). Following overnight culture, cells were loaded with calcium indicator dye (AAT Bioquest Inc, Cat #34601) for 30 minutes at 37° C. The cells were then equilibrated to room temperature for 30 minutes before the assay. Test compounds solubilized in DMSO were transferred to 384 well non-binding surface plates (Corning, Cat #3575) using the Labcyte Echo acoustic dispense and diluted with assay buffer [1×HBSS with calcium/magnesium (Gibco Cat #14025-092), 20 mM HEPES (Gibco Cat #15630-080) and 0.1% fatty acid free BSA (Sigma Cat #A9205)] to a final concentration of 0.5% DMSO. Diluted compounds were added to the cells by FDSS6000 (Hamamatsu) at final concentrations ranging from 0.08 nM to 5 μM. and were then incubated for 20 min at room temperature at which time LPA (Avanti Polar Lipids Cat #857130C) was added at final concentrations of 10 nM to stimulate the cells. The compound IC50 value was defined as the concentration of test compound which inhibited 50% of the calcium flux induced by LPA alone. IC50 values were determined by fitting data to a 4-parameter logistic equation (GraphPad Prism, San Diego Calif.).

hLPA1 [2] = target: T1, hLPA1; test: hLPA1 Binding
nerve-injured mice = details: pretreatment; cited from earlier work
[3] = test system: human foetal lung fibroblasts; details: Tager et al. Nature Medicine 2008; cited from earlier work
UUO mice = details: compared with LPA1 (−/−) mice; cited from earlier work
[4] = test system: mouse epithelial renal cell line, MCT; details: co-treatment with LPA, MCT cells; cited from earlier work
[5] = test system: pancreatic cancer cell lines; details: cited from earlier work

T1 sequence (Q92633 whole entry): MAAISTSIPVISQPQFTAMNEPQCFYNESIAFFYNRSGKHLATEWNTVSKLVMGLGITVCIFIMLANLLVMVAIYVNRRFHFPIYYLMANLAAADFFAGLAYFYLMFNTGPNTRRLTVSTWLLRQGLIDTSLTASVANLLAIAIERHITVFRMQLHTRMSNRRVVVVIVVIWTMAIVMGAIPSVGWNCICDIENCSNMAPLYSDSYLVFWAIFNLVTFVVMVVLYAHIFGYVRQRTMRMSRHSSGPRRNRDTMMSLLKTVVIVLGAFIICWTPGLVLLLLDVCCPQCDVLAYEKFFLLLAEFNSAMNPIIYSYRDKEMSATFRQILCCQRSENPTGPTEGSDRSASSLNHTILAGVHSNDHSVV

Compound	IC50 (hLPA1 [1]) [nM]	further results
Cc1ccccc1[C@@H](C)OC(=O)Nc1c(C)noc1-c1ccc(C23CCC(CC(=O)O)(CC2)CO3)cc1 [Example 49, 2-(1-(4-(3-methyl-4-((((R)-1-(o-tolyl)ethoxy)carbonyl)amino)isoxazol-5-yl)phenyl)-2-oxabicyclo[2.2.2]octan-4-yl)acetic acid]	303	
Cc1noc(-c2ccc(C34CCC(CC(=O)O)(CC3)CO4)c(F)c2)c1NC(=O)O[C@H](C)c1ccccc1 [Example 50, 2-(1-(2-fluoro-4-(3-methyl-4-((((R)-1-phenylethoxy)carbonyl)amino)isoxazol-5-yl)phenyl)-2-oxabicyclo[2.2.2]octan-4-yl)acetic acid]	57	
Cc1noc(-c2ccc(C34CCC(CC(=O)O)(CC3)CO4)c(F)c2)c1NC(=O)O[C@H](C)C1CC1 [Example 51, 2-(1-(4-(4-((((R)-1-cyclopropylethoxy)carbonyl)amino)-3-methylisoxazol-5-yl)-2-fluorophenyl)-2-oxabicyclo[2.2.2]octan-4-yl)acetic acid]	222	
Cc1noc(-c2ccc(C34CCC(CC(=O)O)(CC3)CO4)cc2)c1NC(=O)O[C@H](C)c1ccccc1F [Example 52, 2-(1-(4-(4-((((R)-1-(2-fluorophenyl)ethoxy)carbonyl)amino)-3-methyl-isoxazol-5-yl)phenyl)-2-oxabicyclo[2.2.2]octan-4-yl)acetic acid]	134	
Cc1noc(-c2ccc(C34CCC(CC(=O)O)(CC3)CO4)cc2)c1COC(=O)N(C)C1CCCC1 [Example 53, 2-(1-(4-(4-(((cyclopentyl(methyl)carbamoyl)oxy)methyl)-3-methylisoxazol-5-yl)phenyl)-2-oxabicyclo[2.2.2]octan-4-yl)acetic acid]	2550	
Cc1noc(C23CCC(c4ccc(CC(=O)O)cc4)(CC2)OC3)c1NC(=O)O[C@H](C)c1ccccc1 [Example 54, (R)-2-(4-(4-(3-methyl-4-(((1-phenylethoxy)carbonyl)amino)isoxazol-5-yl)-2-oxabicyclo[2.2.2]octan-1-yl)phenyl)acetic acid]	88	
Cc1noc(C23CCC(c4ccc(CC(=O)O)cc4)(CC2)OC3)c1NC(=O)O[C@H](C)C1CC1 [Example 55, (R)-2-(4-(4-(4-(((1-cyclopropyl-ethoxy)carbonyl)amino)-3-methyl-isoxazol-5-yl)-2-oxabicyclo[2.2.2]octan-1-yl)phenyl)acetic acid]		Ki (hLPA1 [2]): 724 nM
Cc1noc(C23CCC(c4ccc(CC(=O)O)cc4)(CC2)OC3)c1NC(=O)O[C@H](C)c1ccccc1Cl [Example 56, (R)-2-(4-(4-(4-(((1-(2-chlorophenyl)ethoxy)carbonyl)amino)-3-methyl-isoxazol-5-yl)-2-oxabicyclo[2.2.2]octan-1-yl)phenyl)acetic acid]	93	
Cc1noc(-c2ccc(C34CCC(CC(=O)O)(CC3)OC4)c(F)c2)c1NC(=O)O[C@H](C)c1ccccc1 [Example 57, 2-(4-(2-fluoro-4-(3-methyl-4-((((R)-1-phenylethoxy)carbonyl)amino)isoxazol-5-yl)phenyl)-2-oxabicyclo[2.2.2]octan-1-yl)acetic acid]	41	
Cc1noc(-c2ccc(C34CCC(CCC(=O)O)(CC3)CO4)cc2)c1NC(=O)O[C@H](C)c1ccccc1 [Example 58, 3-(1-(4-(3-methyl-4-((((R)-1-phenylethoxy)carbonyl)amino)isoxazol-5-yl)phenyl)-2-oxabicyclo[2.2.2]octan-4-yl)propanoic acid]	157	
Cc1noc(-c2cccc(C34CCC(CC(=O)O)(CC3)OC4)c2)c1NC(=O)O[C@H](C)c1ccccc1Cl [Example 59, 2-(4-(3-(4-((((R)-1-(2-chlorophenyl)ethoxy)carbonyl)amino)-3-methylisoxazol-5-yl)phenyl)-2-oxabicyclo[2.2.2]octan-1-yl)acetic acid]	95	
C[C@@H](N)[C@H]1CC[C@H](C(=O)Nc2ccncc2)CC1 [Example Y-27632]		allodynia and hyperalgesia (nerve-injured mice): completely abolished
Cc1noc(-c2ccc(CSCCC(=O)O)cc2)c1NC(=O)OC(C)c1ccccc1Cl (centres unmarked) [Ki16425]		chemotaxis of human foetal lung fibroblasts induced by BAL from IPF patients [3]: blocked; development of renal fibrosis in UUO mice (UUO mice): closely resembled the profile of LPA1 (−/−) mice; LPA-induced expression of the profibrotic cytokine CTGF [4]: almost completely suppressed; in vitro migration in response to LPA and ascites from pancreatic cancer patients ([5]; Yamada et al, J. Biol. Chem. 2004): effectively blocked; LPA-induced and ascites-induced invasion activity ([5]; highly peritoneal metastatic pancreatic cancer cell line): blocked
